Measured values published in patent publication US20210029998A1, “ACIDIC ANTIMICROBIAL COMPOSITION” (The Procter & Gamble Company, priority 2019, published 2021).
Counter-ions that a name gives are not always drawn.

Test system: Staphylococcus aureus (S. aureus—ATCC #6538)
Test: Minimum Biocidal Concentration (MBC) in suspension
Format: cell-based
Description: B) Antibacterial Efficacy (Minimum Biocidal Concentration in Suspension) The antimicrobial efficacy of the antimicrobial agent in the composition is determined by measuring its Minimum Biocidal Concentration (MBC). The MBC is defined as the lowest absolute concentration of the particular antimicrobial active which provides complete kill (zero bacterial growth). The MBC of the compositions herein is determined against the bacterium, Staphylococcus aureus (S. aureus—ATCC #6538), a gram positive bacterium, These microorganisms are representative of natural contaminants in many consumer and industrial applications. The bacteria inoculum is prepared by transferring several colonies from a Tryptone Soy Agar (TSA) plate to a saline solution (0.85% NaCl) comprising 5% of horse serum as additional soil load when indicated, the bacteria concentration in this saline solution is determined by measuring the % Transmittance at 425 nm and adjusted by either adding more bacteria or more saline solution until the % Transmittance at 425 nm is between 23-25% which corresponds to a bacteria concentration of 10^8 CFU/ml. The antimicrobial agent was added to the composition at a level of 1000 ppm, 500 ppm, or 200 ppm, or 100 ppm or 50 ppm. 200 μL of the antimicrobial hard surface cleaning composition was dosed into one well of row A of a 96 well microtiter plate. Each subsequent well (rows B to G) were dosed with 100 μL of the same hard surface cleaning composition, without the addition of the antimicrobial agent. 100 μL of the antimicrobial hard surface cleaning composition was transferred from row A to row B and mixed. 100 μL of the composition was then transferred from row B to row C and mixed, and the process repeated to row G. As such, the concentration of the antimicrobial agent underwent two-fold dilution in adjacent wells, while the concentration of the other actives in the hard surface cleaning composition remained constant across all the wells in the same column. 10 μL of the 10^8 CFU/ml bacteria suspension in saline was added to wells A to F of the microtiter plate with row G kept as a nil bacteria control. The final volume in each well was 110 μL, except for row G which comprised 100 μL of the hard surface cleaning composition and no bacteria suspension. Bacterial inoculation to each column was staggered by 30 seconds to allow for equal incubation times in all wells so that the contact time between the bacteria and the antimicrobial active for all samples was 6 mins. After this contact time, 10 μL of each test solution was transferred to 90 μL of neutraliser solution (Modified Letheen Broth+1.5% Polysorbate 80, supplied by BioMérieux) to stop the antimicrobial action of the antimicrobial active matching the stagger of the inoculation. 2 μL of this solution was plated onto a TSA plate matching the stagger of the inoculation so that all samples are exposed to the neutralizer for the same period of time. The plate is incubated at 32.5° C. for 48 h for S. aureus. MBC concentration is taken as the lowest concentration of the antimicrobial active at which no visible colony growth is observed on the TSA plate. The antibacterial efficacy of the bispyridinium alkane octenidine hydrochloride was compared to that of the quaternary ammonium compound n-alkyl dimethyl benzyl ammonium chloride/n-alkyl dimethyl ethylbenzyl ammonium chloride (BTC®2125-Stepan) in acidic compositions comprising 1% of the indicated surfactant. Compositions were acidified using either an inorganic acid (hydrochloric acid) or an organic acid (citric acid). The minimal biocidal concentration (MBC) in suspension of each antibacterial active against a gram positive bacterium (Staphylococcus aureus) was measured in the presence of 5% horse serum to mimic stressed soiled conditions. Contact time was 6 minutes except for the composition with 1% of dodecyldimethyl amine oxide that was 30 seconds.

CCCCCCCCN=c1ccn(CCCCCCCCCCn2ccc(=NCCCCCCCC)cc2)cc1 [Octenidine, octenidine dihydrochloride]
MBC (ATCC6538, 0.1 h, pH 3.83, acidic composition with 1% w/v D-glucopyranose oligomeric decyl octyl glucoside (Triton CG 50), citric acid, pH 3.83, 5% horse serum, contact time 6 minutes): 62.5 µg/mL | MBC (ATCC6538, 0.1 h, pH 3.83, acidic composition with 1% w/v cocoamidopropyl hydroxysultaine (Mackam SB 50), HCl, pH 3.83, 5% horse serum, contact time 6 minutes): 62.5 µg/mL | MBC (ATCC6538, 0.1 h, pH 3.86, acidic composition with 1% w/v C9-C11 alcohol EO8 (Neodol 91-8), HCl, pH 3.86, 5% horse serum, contact time 6 minutes): 62.5 µg/mL | MBC (ATCC6538, 0.1 h, pH 3.86, acidic composition with 1% w/v C10 EO5 alcohol ethoxylate (Lutensol ON 50), HCl, pH 3.86, 5% horse serum, contact time 6 minutes): < 31 µg/mL | MBC (ATCC6538, 0.1 h, pH 3.87, acidic composition with 1% w/v 2-ethylhexyl PO5EO6 alkylalkoxylate (Ecosurf EH6), HCl, pH 3.87, 5% horse serum, contact time 6 minutes): < 31 µg/mL | MBC (ATCC6538, pH 3.88, acidic composition with 1% w/v dodecyl dimethyl amine oxide (Empigem OB), citric acid, pH 3.88, 5% horse serum, contact time 30 seconds): 62.5 µg/mL
